Measured values: a melting point compilation (Tetko et al.; mined from patent text by program, amines drawn as free bases though some values may be those of a salt)

Work on N#Cc1cc(C(F)(F)F)cc(Br)c1-c1nc(C(F)(F)C(F)(F)F)c(Br)c(=O)[nH]1 yielded a melting point of 156 °C.
Compound COC1=C(OC)C(=O)C2=C(CCC(CCOc3ccccc3)CC2)C1=O has a melting point of 71 to 72 °C.
For N#Cc1cc(-c2ccc(Cl)cc2Cl)c[nH]c1=O, the melting point was > 260 °C.
For CCOCn1c(Oc2ccccc2)c(CC)c(=O)[nH]c1=O, the melting point was 130 to 131 °C.
Compound O=c1c(Cl)c(-c2ccc(F)cc2)c1=O has a melting point of 113 to 115 °C.
Compound CC(=O)n1nc(-c2c(C)cc(C)c(N)c2C)n2nc(C(C)(C)C)cc12 has a melting point of 206 to 207 °C.
In the case of CC(C(=O)O)c1cc(Cl)c([N+](=O)[O-])cc1Cl (configuration not stated), the melting point is reported as 143 °C.
Compound CC(C)(C)NC(=O)N1CCc2cc(S(=O)(=O)n3cc(-c4ccccc4)[nH]c3=O)ccc21 has a melting point of 222 to 223 °C.
With CCOC(=O)Nc1ccn2cc(C)nc2c1I the melting point was 148 °C.
Work on CCOC(=O)C(=O)Nc1ccc(C#N)cc1 yielded a melting point of 188 °C.
CCCCn1nc(C(F)F)nc1Cc1ccc(-c2ccccc2-c2nnn[nH]2)nc1 gave a melting point of 172 to 174 °C.
With CS(=O)(=O)Nc1cc(F)c(Cl)cc1I the melting point was 123 to 124 °C.
With Nc1c(Cl)cc(C(=O)C=Cc2ccncc2)c2c1OCCO2 the melting point was 209 to 211 °C.
Compound CC(C)(C)CC(C)(C)c1ccc(Nc2ccc(Cc3ccc(Nc4ccc(C(C)(C)CC(C)(C)C)cc4)c4ccccc34)c3ccccc23)cc1 has a melting point of 80 °C.
With COc1nccc2c(C)c3[nH]c4ccncc4c3cc12 the melting point was > 263 °C.
For CN(C)c1ccc(S(=O)(=O)n2c(CCCC(=O)O)cc3nc(Cl)ccc32)c(Cl)c1, the melting point was 208 °C.
In the case of CC1(C)Oc2ccc(C#N)cc2[C@@H](NC2=CC(=O)OC2)[C@@H]1O (relative stereo), the melting point is reported as 182 °C.
In the case of O=C(CNCc1ccccc1)CP(=O)(O)C(Cl)(Cl)Cl, the melting point is reported as 194 to 195 °C.
In the case of CCCOc1ccccc1-c1nc(N)c(NC(=O)C(F)(F)F)c(=O)[nH]1, the melting point is reported as 203 to 204 °C.
For CCOc1cc(C(CC(=O)OC)N2C(=O)c3ccc(N)cc3C2=O)ccc1OC (configuration not stated), the melting point was 65 to 67 °C.
In the case of O=C(O)CCCNC(=O)[C@@H](Cc1ccccc1)C[C@H](Cc1ccccc1)C(=O)O (relative stereo), the melting point is reported as 127 to 129 °C.
Work on CC1(C)C=C(O)C(=O)C(C)(C)C1 yielded a melting point of 85 to 86 °C.
In the case of CCCc1cc(CCC)n2nc(C)c(C#N)c2n1, the melting point is reported as 73 to 74 °C.
In the case of COC(=O)c1cc2c(O)c(C(=O)NCc3ccc(Cl)cc3)cnc2nc1C, the melting point is reported as 265 to 267 °C.
In the case of COc1cc(OC)cc(-c2ncoc2-c2ccc(N)cc2)c1, the melting point is reported as 142 to 146 °C.
With CCOC(=O)C=Cc1ccc(C(F)(F)F)cc1 the melting point was 31 to 32.5 °C.
For COc1ccc(-c2cc(F)cc3c2NC(CN)CO3)c(Cl)c1 (configuration not stated), the melting point was 84 °C.
With CCN(CC)S(=O)(=O)c1cc2[nH]c(=O)c(=O)[nH]c2cc1[N+](=O)[O-] the melting point was > 360 °C.
In the case of CCOCN1C(C)=C(C(=O)O)[C@H](c2cccc([N+](=O)[O-])c2)C(C(=O)OCOC(=O)C(C)(C)C)=C1C, the melting point is reported as 85 to 86 °C.
C=CCN(C(C)=O)c1cccc(-c2ccc3nnc(C)n3n2)c1 showed a melting point of 114 to 115 °C.
For Cc1cc(C)cc(C(=O)NC(C#N)n2cccn2)c1 (configuration not stated), the melting point was 180 to 183 °C.
In the case of CC1(C)CCC(C)(C)c2cc(CCOc3ccc(C(=O)O)c(O)c3)ccc21, the melting point is reported as 210 to 212 °C.
CCOC(=O)c1ccc(-c2ccc(O)c(-c3ccc(N(CC)CC)c(C(F)(F)F)c3)c2)cc1 showed a melting point of 170 °C.
Work on Cn1c(Cl)cccc1=O yielded a melting point of 108 °C.
With CCOC(=O)CNC(=O)c1nc2ccc(NCCCN3CCC(OC(c4ccccc4)c4ccccc4)CC3)nn2c1Cl the melting point was 178 to 180 °C.
With O=C(O)c1[nH]c2cc(Br)c(Cl)cc2c1-c1ccccc1 the melting point was 241 to 242 °C.
For Cc1cc(CCCOc2c(C)cc(-c3noc(CC(F)(F)F)n3)cc2C)on1, the melting point was 84 to 85 °C.
In the case of CC1Nc2cc(NC(=O)c3ccc(-c4ccccc4)cc3)ccc2N1C (configuration not stated), the melting point is reported as 272 to 274 °C.
In the case of O=C(O)c1ccccc1-c1nc(-c2ccc(Cl)c(Cl)c2)no1, the melting point is reported as 202 to 204 °C.
Work on Cc1oc2ccc(C#N)cc2c1Cl yielded a melting point of 132 to 134 °C.
With COc1cc(C=O)ccc1OC(C)c1nc(-c2ccccc2)oc1C (configuration not stated) the melting point was 104 to 105 °C.
O=COC(Cc1ccccc1)C1C(=O)NC1SC(c1ccccc1)(c1ccccc1)c1ccccc1 (configuration not stated) showed a melting point of 169 to 171 °C.
[N-]=[N+]=CC(=O)[C@H](O)[C@@H](O)[C@@H](O)CO showed a melting point of 93 to 94 °C.
CC(C)=CCn1c(Cl)nc2c1c(=O)[nH]c(=O)n2C showed a melting point of 226 to 228 °C.
Work on CC(C)(C)OC(=O)NCCNC(=O)c1cc([N+](=O)[O-])ccn1 yielded a melting point of 130 to 131 °C.
CNc1nc2[nH]c(-c3cccc(CNC(=O)COC)n3)cc2c2c1ncn2C gave a melting point of 263 °C.
Compound CC1(c2ccccc2)Cc2c3c(c(Cl)c(Cl)c2C1=O)OC(C(=O)O)C3 (configuration not stated) has a melting point of 188 °C.
COc1ccc(NC(=O)Cn2c3c(c4c(Cl)c(Cl)ccc42)CCN(C(=O)OC(C)(C)C)CC3)cc1 showed a melting point of 143 to 144 °C.
Cc1cccc(COn2nnc3ccc(Cn4ccnc4)cc32)c1 gave a melting point of 120 °C.
With Nc1nc(=O)n(C2CC(O)C(CO)O2)cc1-c1ccccn1 (configuration not stated) the melting point was 197 to 198 °C.
With COc1ccc(C2CCOCC2)c2sc(NC(=O)N3CCOCC3)nc12 the melting point was 217 to 220 °C.
COC(=O)Nc1cccc(F)c1I gave a melting point of 80 to 82 °C.
